The subject of assay [1] is HaCaT (human keratinocyte) cell line. The assay can be described thus: MTT cell viability assay on HaCaT cells. Particulars: for IC50: Homo sapiens, HaCaT, 48 h; for HaCaT IC50: MTT, 48 h incubation, 10,000 cells/well, '-' = no cytotoxicity at 20 µg/mL. The class given is cell-based. As for the experimental part: (§1) For the investigation of the cytotoxic effect of nucleoside analogues we used healthy human keratinocyte (HaCaT) and tumorous squamous carcinoma SCC-VII cell lines. In the experiments, a standard citotoxicity assay, the MTT assay, was used in a 96-well plate. Importantly, different cell numbers were used in the case of the two different cell lines. The HaCaT cells were seeded 10^4/well concentration while the SCC-VII cells were seeded 5000/well concentration on the plate. In both cases the cells were treated with the nucleoside analogues at ~50% confluence.
The HaCaT cell line was derived from human skin, the cells spontaneously transformed in vitro during long time incubation. Cells were cultured in DMEM medium (Biocenter, Szeged, Hungary) containing 10% fetal bovine serum (FBS, Hyclon, Logan, UT) and 1% antibiotic-antimycotic mix (Penicillin–Streptomycin–Neomycin).
(§2) Cell cultures had been kept under the same conditions during the experiments. Cells were stored at 37 °C, 95% humidity, and 5% CO2 in an incubator. During the MTT-assay, different starter cell number was used because of the cell cycle differences; HaCaT was started with 10.000/well meanwhile SCC VII with 5000/well. After passage, 24 h was assured for the cells to the adhesion. Then incubated with the compounds for 48 h. The experiments were performed in 96 well plates.
(§3) For the dilution of different concentrations of nucleoside analogues were prepared with DMSO 1% (v/v) and DMEM / DMEM-F12/Ham’s F12 cell culture medium.
(§4) After three days of incubation in the cell culture flask, cells were trypsinised into single cell suspensions. Aliquots (200 μL) of each cell suspension were placed in wells of 96-well-plates (Biocenter, Szeged, Hungary). Preliminary tests were conducted with cell numbers 5000 (SCC-VII) and 10,000 (HaCaT) per well. We have been tested five concentrations of each nucleoside analogues (20-10-5-2.5-1.25 µg/mL). The nucleoside analogues were dissolved in DMSO (1 v/v%) and DMEM/ DMEM-F12/Ham’s F12 were added to the wells to produce the required concentrations and the cells were similarly incubated for a further 48 h.
(§5) MTT (Sigma Aldrich, Budapest, Hungary) solution (0.5 mg/mL in PBS) 100 µL was added to each well. The plates were incubated for 1–2 h at 37 ^◦C, the wells aspirated, and MTT formazan extracted with 100 µL of DMSO aided by gentle agitation on a shaker. After 10 min at room temperature, the absorbances were read at 570 nm by an automatic plate reader (WALLAC Victor 2 1420 spectrophotometer), the instrument having been blanked beforehand on a row to which cells had not been added. Percentage viability (respiratory competence) of the population of cells in each well was expressed as: (Absorbance of treated cells/Absorbance of control cells) × 100. IC50 values of the nucleoside analogues were determined by Graphpad.

For assay [2], the system named is SCC-VII (mouse squamous carcinoma) cell line. Kind of assay: MTT cell viability assay on SCC-VII cells. The class given is cell-based. Particulars: for SI (selectivity index): HaCaT IC50/SCC IC50; for IC50: Mus musculus, 48 h; for SCC IC50: MTT, 48 h incubation, 5000 cells/well, '-' = no cytotoxicity at 20 µg/mL. The procedure:
as §1
SCC-VII is a carcinoma tumor that originally arose in the abdominal wall of C3H mice in Dr. Herman Suit’s laboratory at Harvard University, Boston, Massachusetts. SCC VII cells were grown in Dulbecco’s Modified Eagle’s Medium Nutrient Mixture (DMEM-HAM’S F12) (Sigma-Aldrich) supplemented with 2 mM L-glutamine, 23 mM NaHCO3, 100 U/mL penicillin, 100 U/mL streptomycin 1% non-essential amino acids and 10% fetal bovine serum.
as §2, §3, §4, §5

Entries after “also recorded” stand apart in the source; their conditions may differ.

The text below walks through data of article PMC6600393, “Synthesis and Cytostatic Effect of 3’-deoxy-3’-C-Sulfanylmethyl Nucleoside Derivatives with D-xylo Configuration” (Molecules, 2019).

Regarding `CCSC[C@@H]1[C@@H](O[Si](C)(C)C(C)(C)C)[C@H](n2cc(C)c(=O)[nH]c2=O)O[C@@H]1CO[Si](C)(C)C(C)(C)C` [Compound 8, 1-[3’-Deoxy-3’-C-(ethylsulfanylmethyl)-2’,5’-di-O-(tert-butyldimethylsilyl)-β-D-xylofuranosyl]-thymine], 16.9 ± 0.55 µM corresponded to half-maximal inhibition in assay [1] (IC50). For the same molecule, in assay [2], the “SI (selectivity index)” value is 1.09 and the IC50 was 15.5 ± 0.59 µM.

On to `CC(=O)OC[C@H]1O[C@@H](SC[C@@H]2[C@@H](O[Si](C)(C)C(C)(C)C)[C@H](n3cc(C)c(=O)[nH]c3=O)O[C@@H]2CO[Si](C)(C)C(C)(C)C)[C@H](OC(C)=O)[C@@H](OC(C)=O)[C@@H]1OC(C)=O` [Compound 3], for which, in assay [1], the half-maximal inhibitory concentration (IC50) was determined as 22.4 ± 2.91 µM and the “HaCaT IC50” value is “quite toxic”. In assay [2], the “SCC IC50” value is reported as “no cytotoxic effect; also recorded: no cytotoxicity; also recorded: complete loss of activity” and the 50% inhibitory concentration (IC50) was more than 20 mg/L.

On to `CC(=O)OC[C@H]1O[C@@H](SC[C@@H]2[C@@H](O[Si](C)(C)C(C)(C)C)[C@H](n3ccc(=O)[nH]c3=O)O[C@@H]2CO[Si](C)(C)C(C)(C)C)[C@H](OC(C)=O)[C@@H](OC(C)=O)[C@@H]1OC(C)=O` [Compound 1], for which, in assay [1], the 50% inhibitory concentration (IC50) was more than 20 mg/L and the “HaCaT IC50” value is recorded as “no cytotoxic effect; also recorded: no cytotoxicity; also recorded: complete loss of activity”. For the same molecule, in assay [2], the “SCC IC50” value is “no cytotoxic effect; also recorded: no cytotoxicity; also recorded: complete loss of activity” and the IC50 is more than 20 mg/L.

`Cc1cn([C@@H]2O[C@H](CO[Si](C)(C)C(C)(C)C)[C@H](CSCC(C)C)[C@H]2O[Si](C)(C)C(C)(C)C)c(=O)[nH]c1=O` [Compound 11, 1-[3’-Deoxy-3’-C-(i-butylsulfanylmethyl)-2’,5’-di-O-(tert-butyldimethylsilyl)-β-D-xylofuranosyl]-thymine]: the IC50 in assay [1] came to 15.5 ± 2.14 µM. Moreover, in assay [2], the “SI (selectivity index)” value was determined as 0.66 and half-maximal inhibition (IC50) was put at 23.5 ± 0.12 µM.

Take `CCCCCCCCSC[C@@H]1[C@@H](O[Si](C)(C)C(C)(C)C)[C@H](n2cc(C)c(=O)[nH]c2=O)O[C@@H]1CO[Si](C)(C)C(C)(C)C` [Compound 14, 1-[3’-Deoxy-3’-C-(n-octylsulfanylmethyl)-2’,5’-di-O-(tert-butyldimethylsilyl)-β-D-xylofuranosyl]-thymine]: the IC50 in assay [1] turned out to be 26.4 ± 0.37 µM. Moreover, in assay [2], the “SI (selectivity index)” value is given as 1.02 and the IC50 amounted to 26 ± 0.76 µM.

For the molecule `CCCCCCCCCCCCSC[C@@H]1[C@@H](O[Si](C)(C)C(C)(C)C)[C@H](n2cc(C)c(=O)[nH]c2=O)O[C@@H]1CO[Si](C)(C)C(C)(C)C` [Compound 15, 1-[3’-Deoxy-3’-C-(n-dodecylsulfanylmethyl)-2’,5’-di-O-(tert-butyldimethylsilyl)-β-D-xylofuranosyl]-thymine], in assay [1], the IC50 was more than 20 mg/L and the “HaCaT IC50” value was “complete loss of activity”. Further, in assay [2], the “SCC IC50” value is given as “complete loss of activity” and the IC50 was more than 20 mg/L.

Molecule `CCCCSC[C@@H]1[C@@H](O[Si](C)(C)C(C)(C)C)[C@H](n2ccc(=O)[nH]c2=O)O[C@@H]1CO[Si](C)(C)C(C)(C)C` [Compound 18, 1-[3’-Deoxy-3’-C-(n-butylsulfanylmethyl)-2’,5’-di-O-(tert-butyldimethylsilyl)-β-D-xylofuranosyl]-uracil] showed an IC50 in assay [1] of 14.4 ± 1.59 µM. For the same molecule, in assay [2], the “SI (selectivity index)” value worked out at 1.32 and inhibition was half-maximal at 10.9 ± 0.18 µM (IC50).

For `CCSC[C@@H]1[C@@H](O)[C@H](n2cc(C)c(=O)[nH]c2=O)O[C@@H]1CO` [Compound 19, 1-[3’-Deoxy-3’-C-(n-ethylsulfanylmethyl)-β-D-xylofuranosyl]-thymine], in assay [1], the IC50 is more than 20 mg/L and the “HaCaT IC50” value was “did not show any cytotoxic activity; also recorded: no activity”. For the same molecule, in assay [2], the “SCC IC50” value is reported as “did not show any cytotoxic activity; also recorded: no activity” and the concentration for half-maximal inhibition (IC50) was more than 20 mg/L.

In turn, `Cc1cn([C@@H]2O[C@H](CO[Si](C)(C)C(C)(C)C)[C@H](CSCCO)[C@H]2O[Si](C)(C)C(C)(C)C)c(=O)[nH]c1=O` [Compound 17, 1-[3’-Deoxy-3’-C-(2-hydroxyethylsulfanylmethyl)-2’,5’-di-O-(tert-butyldimethylsilyl)-β-D-xylofuranosyl]-thymine] registered an IC50 in assay [1] of 14.6 ± 0.82 µM. Moreover, in assay [2], the “SI (selectivity index)” value was 0.91 and the IC50 was determined as 16 ± 0.17 µM.

In the case of `Cc1cn([C@@H]2O[C@H](CO[Si](C)(C)C(C)(C)C)[C@H](CSC(C)C)[C@H]2O[Si](C)(C)C(C)(C)C)c(=O)[nH]c1=O` [Compound 9, 1-[3’-Deoxy-3’-C-(i-propylsulfanylmethyl)-2’,5’-di-O-(tert-butyldimethylsilyl)-β-D-xylofuranosyl]-thymine], the IC50 worked out at 22.7 ± 1.34 µM in assay [1] and 15.2 ± 0.48 µM in assay [2]. Further, in assay [2], the “SI (selectivity index)” value is given as 1.49.

`Cc1cn([C@@H]2O[C@H](CO[Si](C)(C)C(C)(C)C)[C@@H](O)[C@H]2O[Si](C)(C)C(C)(C)C)c(=O)[nH]c1=O` [Compound 6T, 2’,5’-di-O-tert-butyldimethylsilyl-ribothymidine]: in assay [1], the 50% inhibitory concentration (IC50) came to 15.6 ± 4.45 µM and the “HaCaT IC50” value is “remarkable toxicity”. Moreover, in assay [2], the “SI (selectivity index)” value is 0.83, the “SCC IC50” value is reported as “remarkable toxicity” and the IC50 amounted to 18.8 ± 0.74 µM.

As for `CCCCCCSC[C@@H]1[C@@H](O[Si](C)(C)C(C)(C)C)[C@H](n2cc(C)c(=O)[nH]c2=O)O[C@@H]1CO[Si](C)(C)C(C)(C)C` [Compound 13, 1-[3’-Deoxy-3’-C-(n-hexylsulfanylmethyl)-2’,5’-di-O-(tert-butyldimethylsilyl)-β-D-xylofuranosyl]-thymine], inhibition in assay [1] was half-maximal at 22.9 ± 0.57 µM (IC50). Further, in assay [2], the “SI (selectivity index)” value came out at 1.44 and the half-inhibitory concentration (IC50) stood at 15.9 ± 0.32 µM.

`CCCSC[C@@H]1[C@@H](O[Si](C)(C)C(C)(C)C)[C@H](n2cc(C)c(=O)[nH]c2=O)O[C@@H]1CO[Si](C)(C)C(C)(C)C` [Compound 5, 1-[3’-Deoxy-3’-C-(n-propylsulfanylmethyl)-2’,5’-di-O-(tert-butyldimethylsilyl)-β-D-xylofuranosyl]-thymine]: in assay [1], the IC50 was determined as 22.2 ± 1.7 µM and the “HaCaT IC50” value is “remarkable toxic effect”. Besides, in assay [2], the “SI (selectivity index)” value was determined as 1.46, the “SCC IC50” value is given as “remarkable toxic effect” and the IC50 came to 15.2 ± 1 µM.

Regarding `CN(Cc1cnc2nc(N)nc(N)c2n1)c1ccc(C(=O)N[C@@H](CCC(=O)O)C(=O)O)cc1` [Methotrexate, reference compound], the IC50 in assay [1] was determined as 290.4 ± 2.76 µM; in assay [2] it was 216 ± 2.33 µM.

In the case of `Cc1cn([C@@H]2O[C@H](CO[Si](C)(C)C(C)(C)C)[C@H](CSC(C)(C)C)[C@H]2O[Si](C)(C)C(C)(C)C)c(=O)[nH]c1=O` [Compound 12, 1-[3’-Deoxy-3’-C-(t-butylsulfanylmethyl)-2’,5’-di-O-(tert-butyldimethylsilyl)-β-D-xylofuranosyl]-thymine], the IC50 in assay [1] is more than 34.9 µM; in assay [2], 31.1 ± 0.79 µM.

For the molecule `CCCSC[C@@H]1[C@@H](O[Si](C)(C)C(C)(C)C)[C@H](n2ccc(=O)[nH]c2=O)O[C@@H]1CO[Si](C)(C)C(C)(C)C` [Compound 2], in assay [1], the IC50 is 12.6 ± 0.22 µM and the “HaCaT IC50” value was “remarkable toxic effect”. Also, in assay [2], the “SI (selectivity index)” value stood at 1.07, the “SCC IC50” value is on record as “remarkable toxic effect” and the IC50 came out at 11.8 ± 0.22 µM.

On to `Cc1cn([C@@H]2O[C@H](CO[Si](C)(C)C(C)(C)C)[C@H](CSCc3ccccc3)[C@H]2O[Si](C)(C)C(C)(C)C)c(=O)[nH]c1=O` [Compound 16, 1-[3’-Deoxy-3’-C-(benzylsulfanylmethyl)-2’,5’-di-O-(tert-butyldimethylsilyl)-β-D-xylofuranosyl]-thymine], for which, in assay [1], it took 14.3 ± 0.36 µM to reach half-maximal inhibition (IC50). Also, in assay [2], the “SI (selectivity index)” value is recorded as 0.98 and the IC50 turned out to be 14.6 ± 0.19 µM.
